Data reported in PubChem BioAssay AID179 (DTP/NCI, 2004).
Where “and” joins values, the source holds several entries; their conditions need not be identical. Equal values may be shown once. Calls of active or inactive are those of the source.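 Rule for the calls: active = compounds giving half or more protection of infected cells from virus-caused growth loss, again on retest; inactive = the rest.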

Test system: CEM cells HIV-1 protection, formazan growth assay
Experiment: NCI AIDS Antiviral Assay
Conditions: for IC50: measured here: growth of uninfected CEM cells
Summary of the method: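 Human CEM cells, uninfected and HIV-1-infected, exposed to five drug concentrations; growth measured by soluble formazan assay and scored as percent protection from infection, with protecting compounds retested.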

CC1CNC(c2ccc(NC(=O)Nc3cc(C(=O)Nc4ccc(C5=NC(C)CN5)cc4)ccc3C(=O)Nc3ccc(C4=NC(C)CN4)cc3)cc2)=N1 (stereo not drawn)
EC50: > 100 µM | IC50: > 100 µM

O=C(Nc1ccc(Cl)c(Cl)c1)NC(CO)(CO)CO
EC50: > 200 µM | IC50: 110 µM

CCOC(=O)c1c2c3c(cccc3[nH]c1=O)Sc1ncccc1-2
EC50: > 200 µM | IC50: 15.8 µM

COc1cc(CNc2ccc(SC)cc2)cc(OC)c1OC
EC50: > 100 µM | IC50: 4.68 µM and 4.79 µM

CCN(CC)c1oc(N(CC)CC)c(C(=O)Nc2ccccn2)c(=O)c1C(C)=O
EC50: > 631 µM | IC50: 251 µM

O=C1OC(CCCl)(c2ccccc2)CC1CN1CCOCC1 (stereo not drawn)
EC50: > 692 µM | IC50: 10.5 µM

CC1(Br)C(=O)NC(=O)N(C2CC(N=[N+]=[N-])C(CO)O2)C1N=[N+]=[N-] (stereo not drawn)
outcome: active | IC50: 89.1 µM

CCCCNC(=S)/N=C/c1c(O)c2ccccc2oc1=O
EC50: > 200 µM | IC50: 182 µM

CC(=O)Nc1ccc(S(=O)(=O)[N-]C2C(=O)c3ccccc3C(=O)C2[n+]2ccccc2)cc1 (stereo not drawn)
EC50: > 200 µM | IC50: 37.2 µM

NC1=CN2c3ccccc3N(CC(=O)O)C2C=C1 (stereo not drawn)
EC50: > 200 µM | IC50: > 200 µM

CC(C)(C)c1cc2c(OC/C=C/c3ccccc3)c(c1)Cc1cc(C(C#N)(OC/C=C/c3ccccc3)OC/C=C/c3ccccc3)cc(c1OC/C=C\c1ccccc1)Cc1cc(C(C)(C)C)cc(c1OC/C=C/c1ccccc1)Cc1cc(C(C#N)(OC/C=C\c3ccccc3)OC/C=C/c3ccccc3)cc(c1OC/C=C\c1ccccc1)C2 (stereo not drawn)
EC50: > 100 µM | IC50: > 100 µM

COC(=O)C1CCCN1C(=O)OC(C)(C)C (stereo not drawn)
EC50: 57.5 µM | IC50: > 200 µM

CC(=O)OC[C@]12[C@H](OC(C)=O)[C@H](OC(C)=O)[C@@H]3C(OC(C)=O)[C@@]14OC3(C)COC(=O)c1cccnc1CCC(C)C(=O)OC([C@H](OC(C)=O)[C@@H]2OC(=O)c1ccccc1)[C@]4(C)O (stereo partly drawn)
EC50: > 38.9 µM | IC50: > 38.9 µM

CCOC(=O)/C(C1=NCCN1)=C(\O)c1ccccc1
EC50: 468 µM | IC50: 912 µM

CCOC(=O)CCC(NC(=O)C(CCC(=O)OCC)NC(=O)C(Cc1ccc([N+](=O)[O-])cc1)NC(C)=O)C(=O)NNC(=O)OC(C)(C)C (stereo not drawn)
EC50: > 200 µM | IC50: > 200 µM

CCOC(=O)CN=C1NNS(=O)(=O)c2ccccc21
EC50: > 200 µM | IC50: 110 µM

COc1ccc(CCNCCCC2c3ccccc3-c3ccccc32)cc1OC
EC50: > 87.1 µM | IC50: 4.9 µM

OC1CC(c2ccccc2)Oc2ccccc21 (stereo not drawn)
outcome: inactive

COc1cccc(C(=O)N2CCc3ccccc32)c1OC
outcome: inactive

CC/C(CC(=O)CCC(=O)Nc1ccc(C)c(C)c1)=N\NC(=O)c1cc2ccccc2cc1O
EC50: > 15.8 µM | IC50: 10 µM

Cc1c(-c2coc(-c3ccc(Cl)cc3)n2)c(=O)n(-c2ccccc2)n1C
EC50: > 51.3 µM | IC50: > 51.3 µM

O=C(Nc1ccc(C(F)(F)F)cc1)NC(F)(F)F
EC50: > 200 µM | IC50: > 200 µM

C[C@]12CC[C@H](O)CC1=CC[C@@H]1C2CC[C@]2(C)NC(=O)C(C#N)CC12 (stereo partly drawn)
outcome: inactive

O=C(O)/C(=C/C=C/c1ccccc1)c1csc(-c2nc(/C(=C\C=C\c3ccccc3)C(=O)O)cs2)n1
EC50: > 182 µM | IC50: > 100 µM

CCOC(=O)C(Cl)C1(O)Cc2cccc3cccc1c23 (stereo not drawn)
EC50: > 200 µM | IC50: 110 µM

N#Cc1ncc(C[P+](c2ccccc2)(c2ccccc2)c2ccccc2)nc1N
EC50: > 200 µM | IC50: 170 µM

Cc1ccc(S(=O)(=O)N(CCN)c2cc3c4c(c2)Oc2cccc5c2C4c2c(cccc2O3)O5)cc1
EC50: > 200 µM | IC50: 35.5 µM

C/C(=C\C(=O)c1ccc(Sc2ccccc2)cc1)c1ccc(Sc2ccccc2)cc1
EC50: > 200 µM | IC50: 102 µM

O=C(CCC(=O)OCC1OC(O)(CC2OC(CO)C(O)C(O)C2O)C(O)C1O)OCc1ccccc1 (stereo not drawn)
EC50: > 200 µM | IC50: > 200 µM

Cc1cn(COCCOS(C)(=O)=O)c(=O)[nH]c1=O
EC50: > 200 µM | IC50: > 200 µM

COc1c2occc2c(OC)c2c(=O)c(S(=O)(=O)NC(=O)Nc3ccc(Cl)cc3)coc12
EC50: > 200 µM | IC50: 97.7 µM

O=S(=O)(O)CCCO
EC50: > 200 µM | IC50: > 200 µM

CCC1(O)C(=O)OCc2c1cc1n(c2=O)Cc2cc3cc(N)ccc3nc2-1 (stereo not drawn)
EC50: > 0.1 µM | IC50: 0.0794 µM

O=C1/C(=C\c2ccccc2)Oc2ccc(Cl)cc21
EC50: > 14.5 µM | IC50: > 14.5 µM

COC(=O)C(C(=O)C(=O)Nc1ccccc1OC)c1csc(-n2nc(-c3ccccc3)cc2-c2ccccc2)n1 (stereo not drawn)
EC50: > 115 µM | IC50: 97.7 µM

Cc1ccc(N(C(=O)Nc2ccccc2)C2=NCC(C)S2)cc1C (stereo not drawn)
EC50: > 200 µM | IC50: > 200 µM

Cc1cc2c(c(N)c1C)C(=O)c1ccccc1C2=O
outcome: inactive

O=C(CN1CCCCC1)c1ccc2c(c1)Cc1cc(C(=O)CN3CCCCC3)ccc1O2
EC50: > 70.8 µM | IC50: 33.1 µM

Cc1ccnc(NS(=O)(=O)c2ccc(N=Nc3cc4ccccc4c(C(=O)O)c3O)cc2)n1
EC50: > 200 µM | IC50: 10 µM

C=C(Nc1nc2ccc(C)cc2s1)C(=O)C(CC)C(=O)C(CC)CC1C(=O)NC(=O)NC1=O (stereo not drawn)
EC50: > 39.8 µM | IC50: > 39.8 µM

O=C1OC(=O)c2c1cc1cc3c(cc1c2-c1ccc2c(c1)OCO2)OCO3
outcome: inactive

C=C(CCC/C(C)=C/C=C/[C@]1(C)CCCc2ccoc21)CC(=O)O
EC50: 16.2 µM | IC50: > 200 µM

Cc1cn(C(C)OCCN2C(=O)c3ccccc3C2=O)c(=O)[nH]c1=O (stereo not drawn)
EC50: > 200 µM | IC50: > 200 µM

O=c1[nH]nc(-c2ccc([N+](=O)[O-])cc2)n1/N=C/c1ccc([N+](=O)[O-])cc1
EC50: > 200 µM | IC50: 132 µM

CC1=C[C@H]2O[C@@H]3C[C@H]4OC(=O)/C=C\C=C\C(C(C)O)OCC(O)C(C)CC(=O)OC[C@@]2(C[C@@H]1O)[C@]4(C)[C@@]31CO1 (stereo partly drawn)
EC50: > 2 µM | IC50: 0.0631 µM

CC1CCC(=NNS(=O)(=O)c2ccc(N)cc2)CC1 (stereo not drawn)
EC50: > 129 µM | IC50: > 129 µM

O=C(CC1(O)C(=O)Nc2c(Cl)ccc(Cl)c21)c1ccc2ccccc2c1 (stereo not drawn)
EC50: > 245 µM | IC50: 14.5 µM

C=C/C(C)=C/[C@H](C)C(=O)C[C@H](O)CC1CC(=O)NC(=O)C1
outcome: inactive

N#CN=C(N)N
outcome: inactive

O=c1[nH]nc(Cc2ccc(Cl)cc2)n1/N=C\CC/C=N\n1c(Cc2ccc(Cl)cc2)n[nH]c1=O
EC50: > 200 µM | IC50: 148 µM

O=C(Cc1ccccc1)N/N=C(/c1nc2ccc([N+](=O)[O-])cc2[nH]c1=O)C(O)c1ccc(C(O)/C(=N/NC(=O)Cc2ccccc2)c2nc3ccc([N+](=O)[O-])cc3[nH]c2=O)cc1 (stereo not drawn)
EC50: > 155 µM | IC50: 52.5 µM

Cc1ccc([P+](Cc2ccc([N+](=O)[O-])cc2)(c2ccc(C)cc2)c2ccc(C)cc2)cc1
EC50: > 200 µM | IC50: 3.63 µM

CC1=N/C(=C\c2ccc(/C=C3/N=C(C)OC3=O)cc2)C(=O)O1
EC50: > 851 µM | IC50: 46.8 µM

CCOP(C)(=O)C(Cc1c[nH]c2ccccc12)C(=O)O (stereo not drawn)
EC50: > 200 µM | IC50: > 200 µM

CC(/C=C/c1ccc(N(C)C)cc1)=N\NC(=S)NCC(C)C
EC50: > 200 µM | IC50: 29.5 µM

O=c1c2ccccc2nc(-c2ccccc2)n1NCC1(O)OCC(O)C(O)C1O (stereo not drawn)
outcome: inactive

CC1=C(c2cc(C(=O)Nc3nccs3)nc(NC#N)n2)Sc2ccccc2N1
EC50: > 45.7 µM | IC50: > 45.7 µM

Cc1ccc2c(c1)-c1nc(N)c(C#N)c(-c3ccccc3)c1CCS2(=O)=O
EC50: > 200 µM | IC50: > 200 µM
